Laboratory results reported in the supplement of paper PMC10307832.

Experiments:
Experiment in all cases: relative viability (nuclei count vs DMSO), 5 days (fraction); higher = more cells survive
SW 900 = test system: SW 900
Outline: (§1)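 Medians of duplicate plates are given as relative viability. That measure is the nuclei count in treated wells divided by the count in vehicle wells. Counts were taken on 4× images of lung cancer cell lines in 1536-well plates, 5 days after pin-tool dosing the day after seeding with one drug alone or a fixed anchor-drug dose plus five library-drug doses (not always all listed) in √10 steps.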

NCI-H596 = test system: NCI-H596
Outline: as §1

A-427 = test system: A-427
Outline: as §1

NCI-H522 = test system: NCI-H522
Outline: as §1

NCI-H460 = test system: NCI-H460
Outline: as §1

NCI-H1650 = test system: NCI-H1650
Outline: as §1

LU99A = test system: LU99A
Outline: as §1

LK-2 = test system: LK-2
Outline: as §1

NCI-H358 = test system: NCI-H358
Outline: as §1

NCI-H1755 = test system: NCI-H1755
Outline: as §1

EMC-BAC-2 = test system: EMC-BAC-2
Outline: as §1

Which results are given for `Cc1cn(-c2cc(NC(=O)c3ccc(C)c(Nc4nccc(-c5cccnc5)n4)c3)cc(C(F)(F)F)c2)cn1` [Nilotinib] + Cc1nc(Nc2ncc(C(=O)Nc3c(C)cccc3Cl)s2)cc(N2CCN(CCO)CC2)n1 [Dasatinib] (partner 0.075 µM)?
relative viability (SW 900; first compound 0.001 µM): 0.538; relative viability (SW 900; first compound 0.003162 µM): 0.617; relative viability (SW 900; first compound 0.01 µM): 0.564; relative viability (SW 900; first compound 0.03162 µM): 0.442; relative viability (SW 900; first compound 0.1 µM): 0.315; relative viability (NCI-H596; first compound 0.001 µM): 0.485; relative viability (NCI-H596; first compound 0.003162 µM): 0.705; relative viability (NCI-H596; first compound 0.01 µM): 0.507; relative viability (NCI-H596; first compound 0.03162 µM): 0.504; relative viability (NCI-H596; first compound 0.1 µM): 0.349; relative viability (A-427; first compound 0.001 µM): 0.663; relative viability (A-427; first compound 0.003162 µM): 0.728; relative viability (A-427; first compound 0.01 µM): 0.72; relative viability (A-427; first compound 0.03162 µM): 0.54; relative viability (A-427; first compound 0.1 µM): 0.1; relative viability (NCI-H522; first compound 0.001 µM): 0.851; relative viability (NCI-H522; first compound 0.003162 µM): 0.873; relative viability (NCI-H522; first compound 0.01 µM): 1.16; relative viability (NCI-H522; first compound 0.03162 µM): 0.715; relative viability (NCI-H522; first compound 0.1 µM): 0.596; relative viability (NCI-H460; first compound 0.001 µM): 0.487; relative viability (NCI-H460; first compound 0.003162 µM): 0.384; relative viability (NCI-H460; first compound 0.01 µM): 0.65; relative viability (NCI-H460; first compound 0.03162 µM): 0.444; relative viability (NCI-H460; first compound 0.1 µM): 0.432; relative viability (NCI-H1650; first compound 0.001 µM): 0.335; relative viability (NCI-H1650; first compound 0.003162 µM): 0.32; relative viability (NCI-H1650; first compound 0.01 µM): 0.265; relative viability (NCI-H1650; first compound 0.03162 µM): 0.321; relative viability (NCI-H1650; first compound 0.1 µM): 0.21; relative viability (LU99A; first compound 0.001 µM): 0.482; relative viability (LU99A; first compound 0.003162 µM): 0.702; relative viability (LU99A; first compound 0.01 µM): 0.557; relative viability (LU99A; first compound 0.03162 µM): 0.359; relative viability (LU99A; first compound 0.1 µM): 0.282; relative viability (LK-2; first compound 0.001 µM): 0.311; relative viability (LK-2; first compound 0.003162 µM): 0.239; relative viability (LK-2; first compound 0.01 µM): 0.294; relative viability (LK-2; first compound 0.03162 µM): 0.247; relative viability (LK-2; first compound 0.1 µM): 0.183; relative viability (NCI-H358; first compound 0.001 µM): 0.177; relative viability (NCI-H358; first compound 0.003162 µM): 0.153; relative viability (NCI-H358; first compound 0.01 µM): 0.18; relative viability (NCI-H358; first compound 0.03162 µM): 0.178; relative viability (NCI-H358; first compound 0.1 µM): 0.157; relative viability (NCI-H1755; first compound 0.001 µM): 0.376; relative viability (NCI-H1755; first compound 0.003162 µM): 0.381; relative viability (NCI-H1755; first compound 0.01 µM): 0.404; relative viability (NCI-H1755; first compound 0.03162 µM): 0.276; relative viability (NCI-H1755; first compound 0.1 µM): 0.184; relative viability (EMC-BAC-2; first compound 0.001 µM): 0.308; relative viability (EMC-BAC-2; first compound 0.003162 µM): 0.308; relative viability (EMC-BAC-2; first compound 0.01 µM): 0.325; relative viability (EMC-BAC-2; first compound 0.03162 µM): 0.27; relative viability (EMC-BAC-2; first compound 0.1 µM): 0.296
